17 molecules from patent US11028041B2, “Second generation GRP94-selective inhibitors” (University of Kansas, priority 2017, dated 2021) can be followed below.

Each structure is given as a SMILES string.

One assay addresses Hsp90α (Homo sapiens (Human), UniProt P07900). The experiment in a line: Fluorescence polarization assay against Hsp90α. Type of assay: binding. Conditions: FITC-GDA tracer, 100 μM highest concentration tested, average of two independent experiments ± SEM, read-out: Apparent Kd Hsp90α. As to the method:
Fluorescence Polarization. The assay was performed in 96-well black, flat-bottom plates with a final volume of 100 μL. 25 μL of assay buffer (20 mM HEPES, pH 7.3, 50 mM KCl, 5 mM MgCl2, 20 mM Na2MoO4, 2 mM DTT, 0.1 mg/mL BGG, and 0.01% NP-40) were added, followed by 25 μL of assay buffer containing 6 nM FITC-GDA (fluorescent tracer, stock in DMSO, diluted in assay buffer) and 50 μL of assay buffer containing 10 nM of either Grp94 or Hsp90α were added to each well. For each plate, wells containing buffer only (background), tracer in buffer only (low polarization control) and protein, tracer, and 1% DMSO (final concentration, high polarization control) were included. Compounds were then added with a final concentration of DMSO=1%. Plates were incubated at 4° C. with rocking for 24 h. […] Polarization values were correlated to % tracer bound and compound concentrations.
Background: Polarisation of emitted light reports the rotation of a fluorescent probe.

In assay [1] the test system is MDA-MB-231 cells. Conditions: 500 nM, after 24 h. The protocol: (§1) Wound Healing Scratch Assay. Cells were counted via Trypan blue exclusion and seeded in 12-well plates at 200,000 cells/mL/well and returned to the incubator for 24 h. Scratches were made with a 0.1-10 μL pipette tip, then cells were washed with PBS and fresh media was added. […] Plates were returned to the incubator until 24 h pictures were taken. Images were processed and % migration determined via ImageJ. All experiments were performed in quadruplicate.

The subject of assay [2] is PC3-MM2 cells. Conditions: 500 nM, after 24 h. As to the method:
as §1

Assay [3] has as its system SK-MEL-28 cells. The experiment in a line: Anti-proliferation MTS/PMS assay, SK-MEL-28. Type of assay: cell-based. Conditions: Homo sapiens, 72 h, average of two independent experiments ± SEM. The protocol: (§2) Compounds or vehicle were administered in DMSO (1% DMSO final concentration) and the plates were placed back in the incubator. After 72 h, the % viable cells were determined using the MTS/PMS cell proliferation kit (Promega) per the manufacturer's instructions. Cells treated with vehicle were normalized to 100% viable and compound treated wells were adjusted accordingly.

Assay [4] concerns A549 cells. The experiment in a line: Anti-proliferation MTS/PMS assay, A549. Conditions: Homo sapiens, 72 h, average of two independent experiments ± SEM. The class given is cell-based. As to the method:
as §2

In another assay the test system is Akt. The experiment in a line: Western blot analysis, cytosolic Hsp90-dependent client protein Akt. The class given is cell-based. Conditions: MDA-MB-231, PC3-MM2, SK-MEL-28, A549; 24 h; geldanamycin at 0.5 μM. (In western blotting, separated proteins are transferred to a membrane and probed.)
A further assay relates to Hsp70. The experiment in a line: Western blot analysis, Hsp70 induction. Conditions: MDA-MB-231, PC3-MM2, SK-MEL-28, A549; 24 h; geldanamycin at 0.5 μM. Type of assay: cell-based.
The subject of assay [5] is SK-MEL-28 cells. The experiment in a line: Wound healing scratch assay, SK-MEL-28. The class given is cell-based. Conditions: after 24 h. The protocol:
(§3) Cell Culture. […] Wound Healing Scratch Assay. […] Images were processed and % migration determined via ImageJ. All experiments were performed in quadruplicate.

Assay [6] concerns A549 cells. The experiment in a line: Wound healing scratch assay, A549. The class given is cell-based. Conditions: 500 nM, 24 h. The protocol:
as §3

In assay [7] the test system is PC3-MM2 cells. The experiment in a line: Anti-proliferation MTS/PMS assay, PC3-MM2. Conditions: Homo sapiens, PC3MM2, 72 h, average of two independent experiments ± SEM. The class given is cell-based. The protocol:
as §2

Assay [8] has as its system MDA-MB-231 cells. The experiment in a line: Anti-proliferation MTS/PMS assay, MDA-MB-231. The class given is cell-based. Conditions: Homo sapiens, 72 h, average of two independent experiments ± SEM. As to the method: as §2

Experimental for Akt: (§4) Western Blot Analysis. […] Cells were harvested in cold PBS and lysed using MPER (Thermo Scientific) supplemented with protease inhibitors (Roche) according the manufacturer's instructions. Cell lysates were obtained by centrifugation at 15,000 rpm for 10 min at 4° C. Protein concentrations were determined using the Pierce BCA assay kit following the manufacturer's instructions. Equal amounts of protein were separated via gel electrophoresis under reducing conditions (10% acrylamide gels) then transferred to PVDF membranes and immunoblotted with the corresponding primary antibodies. Membranes were then incubated with the correct HRP-labeled secondary antibody, developed with a chemiluminescent substrate, and visualized.
Experimental for Hsp70: as §4

Take `COC(=O)c1c(O)cc(O)c(Cl)c1CCc1ccccc1Cc1ccccc1` [Compound 6, methyl 2-(2-benzylphenethyl)-3-chloro-4,6-dihydroxybenzoate]: at Hsp90α, the Kd was found to be 20.7 ± 0.5 µM.

As to `COC(=O)c1c(O)cc(O)c(Cl)c1CCc1cccc(Cc2ccccc2)c1` [Compound 7, methyl 2-(3-benzylphenethyl)-3-chloro-4,6-dihydroxybenzoate], on Hsp90α, the Kd is greater than 100 µM.

`COC(=O)c1c(O)cc(O)c(Cl)c1CCc1cc(OC)ccc1Cc1ccccc1` [Compound 16, methyl 2-(2-benzyl-5-methoxyphenethyl)-3-chloro-4,6-dihydroxybenzoate]: the Kd on Hsp90α is 2.2 ± 0.2 µM.

In the case of `COC(=O)c1c(O)cc(O)c(Cl)c1CCc1ccc(OC)cc1Cc1ccccc1` [Compound 17, methyl 2-(2-benzyl-4-methoxyphenethyl)-3-chloro-4,6-dihydroxybenzoate], the Kd at Hsp90α turned out to be 2.6 ± 0.6 µM.

For `COC(=O)c1c(O)cc(O)c(Cl)c1CCc1cccc(OC)c1Cc1ccccc1` [Compound 18, methyl 2-(2-benzyl-3-methoxyphenethyl)-3-chloro-4,6-dihydroxybenzoate], the Kd on Hsp90α is 13.7 ± 1.4 µM.

Take `COC(=O)c1c(O)cc(O)c(Cl)c1CCc1cc(N)ccc1Cc1ccccc1` [Compound 19, methyl 2-(5-amino-2-benzylphenethyl)-3-chloro-4,6-dihydroxybenzoate]: the Kd on Hsp90α was 1 ± 0.1 µM.

On to `COC(=O)c1c(O)cc(O)c(Cl)c1CCc1ccc(N)cc1Cc1ccccc1` [Compound 20, methyl 2-(4-amino-2-benzylphenethyl)-3-chloro-4,6-dihydroxybenzoate], for which the Kd at Hsp90α was 0.34 ± 0.07 µM.

For the molecule `COC(=O)c1c(O)cc(O)c(Cl)c1CCc1cc(O)ccc1Cc1ccccc1` [Compound 22, methyl 2-(2-benzyl-5-hydroxyphenethyl)-3-chloro-4,6-dihydroxybenzoate], the Kd at Hsp90α was found to be 2.1 ± 0.1 µM.

Turning to `COC(=O)c1c(O)cc(O)c(Cl)c1CCc1ccc(O)cc1Cc1ccccc1` [Compound 23, methyl 2-(2-benzyl-4-hydroxyphenethyl)-3-chloro-4,6-dihydroxybenzoate], the Kd on Hsp90α worked out at 0.92 ± 0.03 µM.

As to `COC(=O)c1c(O)cc(O)c(Cl)c1CCc1cccc(O)c1Cc1ccccc1` [Compound 24, methyl 2-(2-benzyl-3-hydroxyphenethyl)-3-chloro-4,6-dihydroxybenzoate], the Kd on Hsp90α was 2 ± 0.2 µM.

As for `CCOc1ccccc1Cc1ccccc1CCc1c(Cl)c(O)cc(O)c1C(=O)OC` [Compound 25, methyl 3-chloro-2-(2-(2-ethoxybenzyl)phenethyl)-4,6-dihydroxybenzoate], the Kd on Hsp90α is greater than 100 µM.

`COC(=O)c1c(O)cc(O)c(Cl)c1CCc1ccccc1Cc1ccccc1OC` [Compound 26, methyl 3-chloro-4,6-dihydroxy-2-(2-(2-methoxybenzyl)phenethyl)benzoate]: the Kd at Hsp90α is greater than 100 µM.

Take `COC(=O)c1c(O)cc(O)c(Cl)c1CCc1ccccc1Cc1ccccc1Cl` [Compound 27, methyl 3-chloro-2-(2-(2-chlorobenzyl)phenethyl)-4,6-dihydroxybenzoate]: the Kd on Hsp90α is greater than 100 µM.

Take `COC(=O)c1c(O)cc(O)c(Cl)c1CCc1ccccc1Cc1cccc(Cl)c1` [Compound 28, methyl 3-chloro-2-(2-(3-chlorobenzyl)phenethyl)-4,6-dihydroxybenzoate]: on Hsp90α, the Kd is 44.6 ± 2 µM.

As to `COC(=O)c1c(O)cc(O)c(Cl)c1CCc1ccccc1Cc1ccc(Cl)cc1` [Compound 29, methyl 3-chloro-2-(2-(4-chlorobenzyl)phenethyl)-4,6-dihydroxybenzoate], the Kd on Hsp90α was greater than 100 µM.

For the molecule `COC(=O)c1c(O)cc(O)c(Cl)c1CCc1ccccc1Cc1ccc(F)cc1` [Compound 30, methyl 3-chloro-2-(2-(4-fluorobenzyl)phenethyl)-4,6-dihydroxybenzoate], the “% migration” value with MDA-MB-231 cells [1] and in the assay on PC3-MM2 cells [2] was 38-40% each time. In addition, the GI50 in the assay with SK-MEL-28 cells [3] amounted to 16.6 ± 1.2 µM; with A549 cells [4], 16.7 ± 1.2 µM; in the assay with PC3-MM2 cells [7], 18.3 ± 2.3 µM; with MDA-MB-231 cells [8], 22.4 ± 1.9 µM. Further, in the assay on Akt, the “degradation of Akt” value was “did not induce the degradation of Akt”. Also, the “induction of Hsp70” value with Hsp70 is “nor did it result in the induction of Hsp70”. Besides, in the assay on SK-MEL-28 cells [5], the effect on migration result is “demonstrated a susceptibility to Grp94 inhibition”. Also, the anti-migratory effect result in the assay with A549 cells [6] is recorded as “demonstrated an anti-migratory effect”.

Consider `COC1=C2C[C@@H](C)C[C@H](OC)[C@H](O)[C@@H](C)/C=C(\C)[C@H](OC(N)=O)[C@@H](OC)/C=C\C=C(/C)C(=O)NC(=CC1=O)C2=O` [geldanamycin, reference compound], for which, in the assay with Akt, the “degradation of Akt” value was “induced the degradation of Akt”. Moreover, in the assay on Hsp70, the “induction of Hsp70” value was “increased the levels of Hsp70”.

In general, GI50 refers to the concentration that inhibits growth by half. Low values mean greater sensitivity of the cells, high ones lower sensitivity of the cells.
